Data set [1] can be described thus: Plasma concentrations of protease inhibitors, ritonavir and efavirenz (antiretroviral exposures). The settings on record: for AUC / Cmax: human, in vivo; for Clast: plasma, median (interquartile range), range for lopinavir, median (range) for efavirenz. From the text: (§1) Study procedures were standardized across multiple study arms. The single pharmacokinetic visit included a medication history, adherence survey, and a CYP2D6 phenotype assessment (the other psychotropic study medications were primarily metabolized by CYP 2D6). Participants with HIV had to be taking their antiretroviral medications consistently for at least 4 weeks prior to sampling. […] Plasma samples were drawn at pre-dose and 2, 4, 6, 12, and 24-h post-dose.
Plasma concentrations of primary protease inhibitors, ritonavir and efavirenz were measured at the University of California San Diego Pediatric Pharmacology Laboratory by validated reverse phase high performance liquid chromatography or mass spectrometry methods.

The conditions of data set [2]: cited from earlier work; for half-life: adolescents, ref [17].
Data set [3] can be described thus: Non-compartmental plasma pharmacokinetics of sertraline and N-desmethylsertraline in HIV-infected and uninfected youth (IMPAACT P1080). The settings on record: for C0: pre-dose plasma; for CL/F: po, non-compartmental apparent oral clearance; for concentration: read-out: Norm-C0.
From the text: International Maternal Pediatric Adolescent AIDS Clinical Trials Network (IMPAACT) P1080 was a multicenter, pilot study of psychiatric and antiretroviral medication concentrations in HIV-1-infected and uninfected youth.
as §1
Analytes and internal standard were extracted with 600 μL of acetonitrile from 200 μL of plasma, then eluted from a Gemini C18 column in under 4 min using acetonitrile/water/formic acid (85:15:0.1, v/v/v) as the mobile phase.
The area under the concentration vs. time curve from time 0–24 h post dose (AUC0−24) was estimated using the trapezoidal rule. Apparent oral clearance (CL/F), where F is bioavailability, was calculated as dose divided by AUC0−24. The apparent volume of distribution (V/F) was determined as CL/F divided by k, where k is the terminal slope of the log plasma concentration-time curve. The half-life (t1/2) was calculated as 0.693/k. All concentration data were normalized to dose (100 mg) and to weight (70 kg). Non-compartmental parameters were estimated with Phoenix® WinNonlin® (Certara L.P. (Pharsight), St. Louis, MO). Pharmacokinetic parameters were compared between HIV(–) and PI/r cohorts with Wilcoxon rank-sum tests, two-sided with significance set to 0.05. Statistical comparisons were not made with the EFV group due to the low enrollment/accrual in this cohort (n = 3).

Data set [4] is described as follows: Sertraline population pharmacokinetics (NONMEM, one-compartment model at steady-state). The format is in vivo, human. The note with it: for V/F / ka: typical population value, Estimate (% SE). Here is the method: A one-compartment model at steady-state with first-order absorption and elimination best described the data (ADVAN2 TRANS2, FOCE with interaction). A combined (additive and proportional) residual error model was used. Covariates were screened individually on each pharmacokinetic parameter (CL/F, V/F, and ka). For all models, goodness of fit were assessed with diagnostic plots. All covariates that improved model fit at p < 0.05 were included in the multivariate screen.

[5] abbreviates: EFV cohort n = 3, median (minimum, maximum).
[6] abbreviates: PI/r cohort n = 12, median (interquartile range).

Structures are written as SMILES. Several values for one entry are separate records, joined by “and”; a condition that tells them apart may be missing. Equal values may be shown once. Read-outs that look alike come from different tables or passages of the source.

In the case of `COC(=O)N[C@H](C(=O)N[C@@H](Cc1ccccc1)[C@@H](O)CN(Cc1ccc(-c2ccccn2)cc1)NC(=O)[C@@H](NC(=O)OC)C(C)(C)C)C(C)(C)C` [Atazanavir], in data set [1], the AUC was found to be 27200 ng·h/mL; the Cmax came out at 3800 ng/mL; the Clast is listed as 1.2 (0.9, 2.6) μg/mL.

As for `O=C1Nc2ccc(Cl)cc2[C@@](C#CC2CC2)(C(F)(F)F)O1` [Efavirenz], in data set [1], the exposure (AUC) was 24500 ng·h/mL; the peak level (Cmax) was 1300 ng/mL; the Clast is listed as 1.3 (1.3, 3.4) μg/mL.

For `N[C@H]1CC[C@@H](c2ccc(Cl)c(Cl)c2)c2ccccc21` [N-desmethylsertraline], the elimination half-life in data set [2] (metabolite, ref [5]) is 62 to 104 h.

As for `CC(C)c1nc(CN(C)C(=O)N[C@H](C(=O)N[C@@H](Cc2ccccc2)C[C@H](O)[C@H](Cc2ccccc2)NC(=O)OCc2cncs2)C(C)C)cs1` [Ritonavir], in data set [1], the area under the curve (AUC) came to 4900 ng·h/mL; the highest level (Cmax) was 600 ng/mL; the Clast is recorded as 0.2 (0.1, 0.4) μg/mL.

Turning to `CN[C@H]1CC[C@@H](c2ccc(Cl)c(Cl)c2)c2ccccc21` [Sertraline], the half-life was 26.7 h in data set [2] (single dose); 15.3 h in data set [2] (steady-state); 11.1 h in data set [3] (human, in vivo, T1/2, EFV cohort n = 3, median (minimum, maximum)); 26.4 h in data set [3] (human, in vivo, T1/2, HIV(-) cohort n = 16, median (interquartile range)); 18.1 h in data set [3] (human, in vivo, T1/2, PI/r cohort n = 12, median (interquartile range)). Besides, in data set [2] (adults, children, and adolescents, ref [5]), the elimination half-life result is listed as “about 27 h”. The “decrease of sertraline exposure (AUC0−24) by efavirenz” value in data set [2] (adults, concomitant efavirenz, ref [13]) is on record as ~ 40%. Further, the “AUC0−24” value in data set [2] (after multiple dosing in prior adult studies, normalized to a 100 mg dose, ref [20]) is 1038 to 1532 ng·h/mL; in data set [2] (previous pediatric studies, normalized to 100 mg dose and 70 kg weight, ref [15], [17]), 883 to 2,535 ng·h/mL. The half-life at steady-state in data set [2] (lower end of dose range of 50–200 mg, ref [15], [17]) was 15.3 h; in data set [2] (upper end of dose range of 50–200 mg, ref [15], [17]) it was 27.2 h. In data set [2] (plasma concentration adjusted for weight, compared to adults, ref [5], [9]), the “sertraline exposure (AUC0−24 and Cmax) lower in children and adolescents” value is listed as ~ 22%. The clearance is 83.1 L/h in data set [2] (population pharmacokinetic study of geriatric patients (median age = 76 years) with Alzheimer's Disease, ref [23]) and 1920 mL/min in data set [4] (human, plasma, oral, population model, for a typical 70 kg patient, read-out: estimated clearance (converted)). In data set [2] (therapeutic drug monitoring program, 100 mg daily doses, IQR 12–30 ng/mL, ref [21]), the median sertraline trough is given as 20 ng/mL. The “sertraline exposures lower in EFV participants than HIV(–) and PI/r groups” value in data set [3] (EFV cohort n = 3) is listed as ~ 50%. Also, the C24 in data set [3] (EFV cohort n = 3, 24 h post-dose, median (minimum, maximum)) is given as 4.2 (2.9, 5.9) ng/mL. In addition, the Tmax was 6 (4, 6) hr in data set [3] (setting [5]); 4 (4, 6) hr in data set [3] (setting [6]); 4 h in data set [3] (human, in vivo). Besides, the C0 in data set [3] (setting [5]) was 6 ng/mL and 6.0 (3.0, 7.0) ng/mL; in data set [3] (setting [6]), 10.0 (7.5, 15.9) ng/mL. In addition, the “normalized trough concentrations, C0 and C24” value in data set [3] (HIV(-) and PI/r groups) is 18 to 33 ng/mL. The “sertraline exposure lower in the PI/r cohort than in HIV(–)” value in data set [3] (PI/r cohort compared to HIV(–)) was ~ 40% and 30–40%. The Cmax was determined as 13.2 ng/mL in data set [3] (human, in vivo, 0.7 mg/kg, Cmax, EFV cohort n = 3, median (minimum, maximum)); 34.3 ng/mL in data set [3] (human, in vivo, 0.9 mg/kg, Cmax, PI/r cohort n = 12, median (interquartile range)); 46.7 ng/mL in data set [3] (human, in vivo, 1.3 mg/kg, Cmax, HIV(-) cohort n = 16, median (interquartile range)); 28.8 ng/mL in data set [3] (human, in vivo, 100 mg, Norm-Cmax, EFV cohort n = 3, normalized to 100 mg once daily and 70 kg, median (minimum, maximum)); 78.3 ng/mL in data set [3] (human, in vivo, 100 mg, Norm-Cmax, HIV(-) cohort n = 16, normalized to 100 mg once daily and 70 kg, median (interquartile range)); 46.9 ng/mL in data set [3] (human, in vivo, 100 mg, Norm-Cmax, PI/r cohort n = 12, normalized to 100 mg once daily and 70 kg, median (interquartile range)). The exposure AUC(0-t) in data set [3] (human, in vivo, 100 mg, Norm-AUC0−24, EFV cohort n = 3, normalized to a 100 mg once daily dose and a weight of 70 kg, median (minimum, maximum)) is 473 ng·h/mL; in data set [3] (human, in vivo, 100 mg, Norm-AUC0−24, HIV(-) cohort n = 16, normalized to a 100 mg once daily dose and a weight of 70 kg, median (interquartile range)) it was 1180 ng·h/mL; in data set [3] (human, in vivo, 100 mg, Norm-AUC0−24, PI/r cohort n = 12, normalized to a 100 mg once daily dose and a weight of 70 kg, median (interquartile range)), 791 ng·h/mL; in data set [3] (human, in vivo, AUC0−24, EFV cohort n = 3, plasma, steady state, median (minimum, maximum)) it was 145 ng·h/mL; in data set [3] (human, in vivo, AUC0−24, HIV(-) cohort n = 16, plasma, steady state, median (interquartile range)), 652 ng·h/mL; in data set [3] (human, in vivo, AUC0−24, PI/r cohort n = 12, plasma, steady state, median (interquartile range)), 486 ng·h/mL. Further, the concentration at 24 h in data set [3] (human, in vivo, 100 mg, Norm-C24, EFV cohort n = 3, normalized to 100 mg once daily and 70 kg, median (minimum, maximum)) turned out to be 12.8 ng/mL; in data set [3] (human, in vivo, 100 mg, Norm-C24, HIV(-) cohort n = 16, normalized to 100 mg once daily and 70 kg, median (interquartile range)), 32.7 ng/mL; in data set [3] (human, in vivo, 100 mg, Norm-C24, PI/r cohort n = 12, normalized to 100 mg once daily and 70 kg, median (interquartile range)), 20.1 ng/mL; in data set [3] (human, in vivo, C24, EFV cohort n = 3, 24 h post-dose, median (minimum, maximum)) it was 4.2 ng/mL; in data set [3] (human, in vivo, C24, HIV(-) cohort n = 16, 24 h post-dose, median (interquartile range)), 17.5 ng/mL; in data set [3] (human, in vivo, C24, PI/r cohort n = 12, 24 h post-dose, median (interquartile range)), 12.6 ng/mL. The CL/F is 75 mL/min/kg in data set [3] (human, in vivo, EFV cohort n = 3, median (minimum, maximum)); 23.3 mL/min/kg in data set [3] (human, in vivo, HIV(-) cohort n = 16, median (interquartile range)); 26.7 mL/min/kg in data set [3] (human, in vivo, PI/r cohort n = 12, median (interquartile range)). Also, the concentration in data set [3] (EFV cohort n = 3, normalized to 100 mg once daily and 70 kg, median (minimum, maximum)) was determined as 13.1 ng/mL; in data set [3] (HIV(-) cohort n = 16, normalized to 100 mg once daily and 70 kg, median (interquartile range)) it was 33.3 ng/mL; in data set [3] (PI/r cohort n = 12, normalized to 100 mg once daily and 70 kg, median (interquartile range)), 17.8 ng/mL. Moreover, the “clearance higher than in geriatric population pharmacokinetic study” value in data set [4] (115 L/h vs 83.1 L/h in geriatric patients with Alzheimer's Disease) is recorded as 38%. The V/F in data set [4] (base model) is 53.8 L/kg; in data set [4] (final model), 44.6 L/kg. The ka in data set [4] (base model) is 0.45 1/h and 0.45 (16.2) 1/h; in data set [4] (final model), 0.42 1/h and 0.42 (14.7) 1/h.

The term AUC denotes the area under the concentration-time curve, a measure of exposure. Read a low AUC as less exposure. As usually defined, the Cmax is the maximum level reached in the sampled fluid or tissue. Usually half-life stands for the time in which the quantity being followed falls by half. In general, AUC(0-t) refers to exposure summed from dosing to a finite time, without extrapolation to infinity. A high value points to more exposure. Broadly, the CL/F is clearance divided by bioavailability, as obtained after extravascular dosing.

Source of the values: paper PMC6372542 (Frontiers in Pediatrics, 2019).
